Experimental data as given in ChEMBL document CHEMBL1132680, “A "cephalosporin-like" cyclic depsipeptide: synthesis and reaction with beta-lactam-recognizing enzymes” (Bioorg Med Chem Lett, 1999).

Key:
Format in all cases: ADME
[1] = Kcat/Km against class A PCI beta-lactamase catalyzed lactone hydrolysis
[2] = Kcat/Km against class A TEM beta-lactamase catalyzed lactone hydrolysis
[3] = Kcat/Km against class C P99 beta-lactamase catalyzed lactone hydrolysis
[4] = Kcat against class A PCI beta-lactamase catalyzed lactone hydrolysis
[5] = Kcat against class A TEM beta-lactamase catalyzed lactone hydrolysis
[6] = Km against class A PCI beta-lactamase catalyzed lactone hydrolysis
[7] = Km against class A TEM beta-lactamase catalyzed lactone hydrolysis
[8] = Km against class C P99 beta-lactamase catalyzed lactone hydrolysis
[9] = Kcat against class C P99 beta-lactamase catalyzed lactone hydrolysis

SMILES | Ratio [1] | Ratio [2] | Ratio [3] | k cat [4] | k cat [5] | Km [6] | Km [7] | Km [8] | k cat [9]
O=C(Cc1ccccc1)N[C@H]1Cc2cccc(C(=O)O)c2OC1=O | 1.55 M⁻¹ s⁻¹ | 39000 M⁻¹ s⁻¹ | 8700 M⁻¹ s⁻¹ | 0.0047 s⁻¹ | 2.07 s⁻¹ | 0.304 µM | 53 µM | 620 µM | 5.4 s⁻¹
O=C(Cc1ccccc1)N[C@@H](Cc1cccc(C(=O)O)c1O)B(O)O | 1.6 M⁻¹ s⁻¹ | 1200 M⁻¹ s⁻¹ | 19000 M⁻¹ s⁻¹ | 0.024 s⁻¹ | > 1.2 s⁻¹ | 15 µM | > 1000 µM | 290 µM | 5.6 s⁻¹
CC(=O)OCC1=C(C(=O)O)N2C(=O)[C@@H](NC(=O)Cc3cccs3)[C@H]2SC1 [CEPHALOTHIN] | >= 1000 M-1 s-1 | 600000 M⁻¹ s⁻¹ | 22000000 M⁻¹ s⁻¹ | 0.001 s⁻¹ | 120 s⁻¹ | ≤ 1 µM | 200 µM | 9 µM | 200 s⁻¹
